By Kd is commonly meant the concentration at which binding is half-saturated. Low values mean a tighter complex, high ones a looser complex. The IC50 is the midpoint of a concentration-inhibition curve. Higher therefore signals weaker potency in that assay.

In one test the target is T1, CRBN/DDB1 protein (Homo sapiens (Human), UniProt Q96SW2). In words: Isothermal titration calorimetry (ITC) detection of compound binding to CRBN/DDB1. To be noted: 25° C., pH 7.0, 10 μM protein, 100 μM compound, one set of sites model.
T1 sequence (Q96SW2 whole entry, species assumed): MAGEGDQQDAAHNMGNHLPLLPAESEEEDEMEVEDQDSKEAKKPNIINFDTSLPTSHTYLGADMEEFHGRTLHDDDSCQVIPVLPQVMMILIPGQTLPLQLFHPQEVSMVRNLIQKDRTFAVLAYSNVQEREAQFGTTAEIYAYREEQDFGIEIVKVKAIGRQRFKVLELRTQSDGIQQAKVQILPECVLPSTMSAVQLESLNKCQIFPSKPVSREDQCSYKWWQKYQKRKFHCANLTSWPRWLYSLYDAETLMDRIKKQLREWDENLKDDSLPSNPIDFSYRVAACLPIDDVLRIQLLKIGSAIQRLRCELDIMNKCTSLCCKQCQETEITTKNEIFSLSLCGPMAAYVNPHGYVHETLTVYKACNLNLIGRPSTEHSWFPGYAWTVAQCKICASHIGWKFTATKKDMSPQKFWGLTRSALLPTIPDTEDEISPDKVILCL
T1 sequence (Q16531 whole entry partner, species assumed): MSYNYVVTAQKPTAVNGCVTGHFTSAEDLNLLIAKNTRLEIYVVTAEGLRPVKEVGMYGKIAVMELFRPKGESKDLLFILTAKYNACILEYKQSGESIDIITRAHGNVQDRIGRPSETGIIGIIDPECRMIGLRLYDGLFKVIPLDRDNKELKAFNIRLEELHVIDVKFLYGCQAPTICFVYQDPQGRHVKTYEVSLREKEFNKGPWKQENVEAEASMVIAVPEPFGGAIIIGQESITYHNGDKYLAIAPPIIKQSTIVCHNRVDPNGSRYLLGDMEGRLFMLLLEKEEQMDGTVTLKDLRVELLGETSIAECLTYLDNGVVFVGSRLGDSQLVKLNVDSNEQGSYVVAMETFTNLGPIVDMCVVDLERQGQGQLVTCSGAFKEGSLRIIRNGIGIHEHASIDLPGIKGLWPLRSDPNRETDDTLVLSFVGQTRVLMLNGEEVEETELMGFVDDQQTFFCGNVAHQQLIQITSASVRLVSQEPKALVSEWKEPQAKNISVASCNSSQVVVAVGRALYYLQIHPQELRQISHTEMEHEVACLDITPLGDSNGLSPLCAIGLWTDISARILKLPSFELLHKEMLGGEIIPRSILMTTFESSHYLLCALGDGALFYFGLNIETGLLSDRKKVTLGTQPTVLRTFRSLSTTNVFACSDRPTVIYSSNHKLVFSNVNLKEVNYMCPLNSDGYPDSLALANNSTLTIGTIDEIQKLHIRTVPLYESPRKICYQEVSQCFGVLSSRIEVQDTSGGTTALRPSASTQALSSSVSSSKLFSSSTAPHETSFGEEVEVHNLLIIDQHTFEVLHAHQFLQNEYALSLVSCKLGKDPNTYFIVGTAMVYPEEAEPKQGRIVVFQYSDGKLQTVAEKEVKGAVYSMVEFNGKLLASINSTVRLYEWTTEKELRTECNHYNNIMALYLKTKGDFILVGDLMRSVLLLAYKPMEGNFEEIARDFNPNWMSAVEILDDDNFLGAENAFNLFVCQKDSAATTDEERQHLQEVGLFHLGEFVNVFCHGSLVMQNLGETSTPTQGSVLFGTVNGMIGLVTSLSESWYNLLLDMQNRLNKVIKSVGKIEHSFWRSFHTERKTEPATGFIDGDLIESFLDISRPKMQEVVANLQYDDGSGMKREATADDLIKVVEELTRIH
Protocol: Experiment 2 Isothermal Titration Calorimetry (ITC) Detection of Compound Binding to CRBN/DDB1
6.1 mL of 200 mM disodium hydrogen phosphate aqueous solution and 3.9 mL of 200 mM sodium dihydrogen phosphate aqueous solution were mixed to obtain 200 mM PB buffer (pH 7.0). Then, 5397 μL of deionized water was mixed with 600 μL of 200 mM PB buffer and 3 μL of 10% Tween 20 aqueous solution to prepare a detection buffer with a pH of 7.0.
The protein storage solution was subjected to buffer exchange using the detection buffer prepared above according to the instruction of the Zeba™ Spin Desalting Columns (Thermo Fisher Scientific Inc., #89882). After the exchange was completed, ultraviolet (UV) absorption of the protein solution at OD280nm was measured using the microplate reader (BMG LABTECH Inc., PHERAstar FSX), and the concentration was calculated. Based on the measured concentration, the protein was diluted to 10 μM with the detection buffer, and added with DMSO to a final concentration of 1%, resulting in a total volume of 300 μL. After a brief centrifugation at room temperature, the solution was collected for later use.
The compound powder was dissolved in DMSO and diluted to 100 μM with the detection buffer prepared above. The DMSO concentration was adjusted to a final concentration of 1% with a total volume of 100 μL. […]
Take `CN(C)C(=O)c1[nH]c2ccccc2c1C(=O)N1CC2(CC(=O)NC2=O)C1` [Compound A3]: the Kd was 15 nM.

Another test addresses T1, CRBN/DDB1 protein. In words: Inhibition of CRBN/DDB1 protein activity, fluorescence resonance energy transfer (FRET) method with FITC-labeled thalidomide analog. The class given is binding. To be noted: 5.0 nM CRBN/DDB1, 50.0 nM FITC-labeled thalidomide analog, 25° C., pH 7.0. From the text:
Experiment 1 Detection of Compounds Inhibition of CRBN/DDB1 Protein Activity (Using a Fluorescence Resonance Energy Transfer (FRET) Method)
Microplate reader (BMG PHERAstar FSX), ECHO (LABCYTE Echo 665), microplate thermostatic oscillator (Hangzhou Ruicheng Instrument Co., Ltd.), disodium hydrogen phosphate (Sigma-Aldrich (Shanghai) Trading Co., Ltd.), sodium dihydrogen phosphate (Sigma-Aldrich (Shanghai) Trading Co., Ltd.), bovine serum albumin (Sigma-Aldrich (Shanghai) Trading Co., Ltd.), Anti-6His-Tb crypate Gold (Cisbio Bioassays Company CISBIO), CRBN/DDB1 protein (HitGen Inc.), 384-well plate (Grenier Bio-one (Shanghai) Co., Ltd.).
The compound powders were dissolved in DMSO and serially diluted using ECHO. The resulting dilutions were individually added to 384-well reaction plates, ensuring that the final concentration of DMSO in the entire reaction system (10.0 μL) was 1.0%. An equal volume of DMSO was added as a control.
The CRBN/DDB1 protein was diluted to twice the required final concentration (5.0 nM) by addition of 20 mM disodium hydrogen phosphate, 20 mM sodium dihydrogen phosphate, 0.08% bovine serum albumin and a buffer with pH 7.0. […] The Anti-6His-Tb crypate Gold and FITC-labeled thalidomide analog were diluted to twice the required final concentration by addition of 20 mM disodium hydrogen phosphate, 20 mM sodium dihydrogen phosphate, 0.08% bovine serum albumin and the buffer with pH 7.0. The final concentration of Anti-6His-Tb crypate Gold was 0.2 nM, and the final concentration of the FITC-labeled thalidomide analog was 50.0 nM, so as to obtain a mixture of Anti-6His-Tb crypate Gold/FITC-labeled thalidomide analog. 5.0 μL of the mixture of Anti-6His-Tb crypate Gold/FITC-labeled thalidomide analog was individually added to the 384-well reaction plates, followed by centrifugation at 1000 rpm for 1 min. Then the reaction plates were incubated in the microplate thermostatic oscillator at 25° C. and 250 rpm for 30 min. After the reaction was completed, the fluorescence signal values in the 384-well reaction plates were read using the microplate reader (Ex=337 nm, Em=520/490 nm).
A solvent group (containing 5.0 nM CRBN/DDB1, 0.2 nM Anti-6His-Tb crypate Gold, 50.0 nM FITC-labeled thalidomide analog and 1.0% DMSO) was used as a negative control. A reaction buffer group (containing 0.2 nM Anti-6His-Tb crypate Gold, 50.0 nM FITC-labeled thalidomide analog and 1.0% DMSO) was used as the blank control.
The residual activity percentage at each concentration was calculated using the following formula: […]
A dose-effect curve was fitted using GraphPad 6.0 to calculate the IC50 value.
As for `CN(C)C(=O)c1cccc(C(=O)N2CC3(CC(=O)NC3=O)C2)c1` [Compound A5], the IC50 was in the range of 1000 to 10000 nM.

Molecule `CN(C)C(=O)c1cscc1C(=O)N1CC2(CC(=O)NC2=O)C1` [Compound A6] gave an IC50 of 100 to 1000 nM.

In turn, `O=C1CC2(CN(C(=O)c3csc4ccccc34)C2)C(=O)N1` [Compound A13] registered an IC50 of 1000 to 10000 nM.

As for `NC(=O)c1sc2ccccc2c1C(=O)N1CC2(CC(=O)NC2=O)C1` [Compound A10], the IC50 fell in the range of 100 to 1000 nM.

`CN(C)C(=O)c1sccc1C(=O)N1CC2(CC(=O)NC2=O)C1` [Compound A15] came in with an IC50 of 1000 to 10000 nM.

`CC(=O)N1CCN(C(=O)c2sc3ccccc3c2C(=O)N2CC3(CC(=O)NC3=O)C2)CC1` [Compound A11] gave a half-maximal inhibitory concentration (IC50) below 100 nM.

Consider `CN(C)C(=O)c1c(C(=O)N2CC3(CC(=O)NC3=O)C2)c2ccccc2n1C` [Compound A19], for which the IC50 is below 100 nM.

Molecule `O=C1CC2(CN(C(=O)c3c(C(=O)NC4CCCCC4)sc4ccccc34)C2)C(=O)N1` [Compound A7] gave an IC50 below 100 nM.

`CN(C)C(=O)c1[nH]c2ccccc2c1C(=O)N1CC2(CC(=O)NC2=O)C1` [Compound A3] yielded an IC50 below 100 nM.

For `O=C1CC2(CN(C(=O)c3cc4ccccc4s3)C2)C(=O)N1` [Compound A12], the concentration for half-maximal inhibition (IC50) is 1000 to 10000 nM.

`CN(C)C(=O)c1c(C(=O)N2CC3(CC(=O)NC3=O)C2)sc2ccccc12` [Compound A2] displayed an IC50 of 100 to 1000 nM.

Regarding `CN(C)C(=O)c1[nH]c2ccccc2c1CN1CC2(CC(=O)NC2=O)C1` [Compound A17], the IC50 lay in the range of 100000 to 200000 nM.

On to `CN(C)C(=O)c1ccc(C(=O)N2CC3(CC(=O)NC3=O)C2)cc1` [Compound A4], for which the half-inhibitory concentration (IC50) lay in the range of 1000 to 10000 nM.

As for `O=C1CC2(CN(C(=O)c3c(C(=O)N4CCNCC4)sc4ccccc34)C2)C(=O)N1` [Compound A8], the IC50 was below 100 nM.

Take `O=C1CC2(CN(C(=O)c3c(C(=O)N4CC5(COC5)C4)sc4ccccc34)C2)C(=O)N1` [Compound A9]: the IC50 is below 100 nM.

`COC(=O)c1ccccc1C(=O)N1CC2(CC(=O)NC2=O)C1` [Compound A14] showed a half-maximal inhibitory concentration (IC50) of 100 to 1000 nM.

Values taken from patent publication US20250163070A1, “SPIRO COMPOUND AND APPLICATION THEREOF” (HITGEN INC., priority 2022, published 2025).
